Test results taken from ChEMBL document CHEMBL2073824, “Mechanism of the pharmacokinetic interaction between methotrexate and benzimidazoles: potential role for breast cancer resistance protein in clinical drug-drug interactions” (Cancer Res, 2004).
Each block holds one molecule with its values, some of them ahead of it.

Tests used:
[1] = target: T1, Broad substrate specificity ATP-binding cassette transporter ABCG2 (Homo sapiens, UniProt Q9UNQ0); assay: TP_TRANSPORTER: uptake in membrane vesicle from BCRP-expressing Sf9 cells; type: functional, cell membranes
T1 sequence (Q9UNQ0 whole entry): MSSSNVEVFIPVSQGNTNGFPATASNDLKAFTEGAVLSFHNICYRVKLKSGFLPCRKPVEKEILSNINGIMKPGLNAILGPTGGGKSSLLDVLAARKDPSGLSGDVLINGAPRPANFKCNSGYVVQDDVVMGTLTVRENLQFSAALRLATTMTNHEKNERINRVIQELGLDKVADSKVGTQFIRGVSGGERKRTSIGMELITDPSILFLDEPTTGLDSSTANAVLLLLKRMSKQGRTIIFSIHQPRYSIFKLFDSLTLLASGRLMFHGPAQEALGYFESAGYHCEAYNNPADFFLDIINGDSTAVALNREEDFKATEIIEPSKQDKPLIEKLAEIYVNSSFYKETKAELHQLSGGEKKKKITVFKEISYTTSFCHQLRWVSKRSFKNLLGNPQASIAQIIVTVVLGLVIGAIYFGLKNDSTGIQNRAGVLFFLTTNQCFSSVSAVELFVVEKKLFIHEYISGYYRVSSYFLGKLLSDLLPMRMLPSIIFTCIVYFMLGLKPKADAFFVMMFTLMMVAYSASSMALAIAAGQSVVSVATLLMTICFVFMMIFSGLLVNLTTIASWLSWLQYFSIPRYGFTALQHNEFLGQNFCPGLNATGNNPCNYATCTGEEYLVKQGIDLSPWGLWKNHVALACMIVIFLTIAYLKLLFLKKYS

[2] = target: T1, Broad substrate specificity ATP-binding cassette transporter ABCG2; assay: TP_TRANSPORTER: inhibition of MTX uptake in membrane vesicle from BCRP-expressing Sf9 cell; type: functional, cell membranes
[3] = target: T2, Broad substrate specificity ATP-binding cassette transporter ABCG2 (Mus musculus, UniProt Q7TMS5); assay: TP_TRANSPORTER: transepithelial transport in Bcrp-expressing MDCKII cells; type: functional, cell-based; details: dog, mdck-ii
T2 sequence (Q7TMS5 whole entry): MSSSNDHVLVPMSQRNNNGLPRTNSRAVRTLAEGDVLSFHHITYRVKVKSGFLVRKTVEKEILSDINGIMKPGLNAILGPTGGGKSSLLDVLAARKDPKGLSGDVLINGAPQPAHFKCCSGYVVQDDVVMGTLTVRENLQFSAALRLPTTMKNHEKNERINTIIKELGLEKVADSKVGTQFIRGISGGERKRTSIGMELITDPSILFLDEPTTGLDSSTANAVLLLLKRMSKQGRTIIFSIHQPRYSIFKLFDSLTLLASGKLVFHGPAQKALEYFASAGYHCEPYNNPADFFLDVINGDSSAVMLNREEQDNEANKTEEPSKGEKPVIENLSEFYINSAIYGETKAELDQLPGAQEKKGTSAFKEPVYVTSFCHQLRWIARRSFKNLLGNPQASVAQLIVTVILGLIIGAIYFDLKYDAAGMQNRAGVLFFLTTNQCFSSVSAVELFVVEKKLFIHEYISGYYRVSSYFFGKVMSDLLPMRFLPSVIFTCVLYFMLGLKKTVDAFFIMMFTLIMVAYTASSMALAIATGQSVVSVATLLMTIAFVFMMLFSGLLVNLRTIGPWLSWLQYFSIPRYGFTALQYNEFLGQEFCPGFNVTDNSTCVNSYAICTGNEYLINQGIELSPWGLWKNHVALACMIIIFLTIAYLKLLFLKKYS

Activity [1]: substrate []
Compound: CN(Cc1cnc2nc(N)nc(N)c2n1)c1ccc(C(=O)N[C@@H](CCC(=O)O)C(=O)O)cc1 [METHOTREXATE]

IC50 ([2]; sf9): inhibitor [IC50=10-50uM]
Compound: COc1ccc2[nH]c([S+]([O-])Cc3ncc(C)c(OC)c3C)nc2c1 (stereo not given) [OMEPRAZOLE]

IC50 ([2]; read-out: IC50): 10 µM
Km [3]: substrate [Km=0.1-0.2mM]
Compound: COc1ccnc(C[S+]([O-])c2nc3ccc(OC(F)F)cc3[nH]2)c1OC (stereo not given) [PANTOPRAZOLE]

Activity [3]: substrate []
Compound: CC[C@@]1(O)C(=O)OCc2c1cc1n(c2=O)Cc2cc3c(CN(C)C)c(O)ccc3nc2-1 [TOPOTECAN]
